Columns and labels:
Type in all cases: biochemical
[1] = biological target: T1, DS-epi1 (DS-epimerase 1) (Homo sapiens, UniProt Q9UL01); assay: epimerase activity assay (3H release from [[…]-3H]dK4) with recombinant enzyme; dialysis irreversibility test; Lineweaver-Burk kinetics
T1 construct: gene DSE; truncated form (amino acid 23–775-HIS)

[2] = biological target: T2, HSepi (heparan sulfate glucuronyl C5-epimerase) (Homo sapiens, UniProt O94923); assay: epimerase activity assay (3H release from [[…]-3H]-N-sulfated K5 polysaccharide) with recombinant enzyme
T2 construct: gene GLCE; full-length, myc-HIS fusion
T2 sequence (O94923 1-617): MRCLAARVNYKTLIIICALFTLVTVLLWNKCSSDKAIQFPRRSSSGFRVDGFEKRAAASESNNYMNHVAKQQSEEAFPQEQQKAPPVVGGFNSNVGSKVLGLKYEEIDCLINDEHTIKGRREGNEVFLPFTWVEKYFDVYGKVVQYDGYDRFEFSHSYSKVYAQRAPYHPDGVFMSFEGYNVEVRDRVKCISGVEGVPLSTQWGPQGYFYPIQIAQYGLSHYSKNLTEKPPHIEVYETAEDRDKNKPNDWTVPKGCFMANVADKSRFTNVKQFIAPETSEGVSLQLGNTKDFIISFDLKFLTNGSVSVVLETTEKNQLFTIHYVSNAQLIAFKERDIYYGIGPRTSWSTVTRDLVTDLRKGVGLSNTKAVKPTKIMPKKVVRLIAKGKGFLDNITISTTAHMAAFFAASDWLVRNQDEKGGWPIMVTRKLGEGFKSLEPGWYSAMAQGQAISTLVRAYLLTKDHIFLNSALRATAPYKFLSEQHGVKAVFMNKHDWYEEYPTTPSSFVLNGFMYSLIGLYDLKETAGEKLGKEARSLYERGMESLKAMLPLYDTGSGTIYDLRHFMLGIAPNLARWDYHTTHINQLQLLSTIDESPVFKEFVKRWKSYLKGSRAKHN

[3] = biological target: T3, D4ST1 (DS 4-O-sulfotransferase 1) (Homo sapiens, UniProt Q8NCH0); assay: sulfotransferase activity assay ([…]PAPS incorporation) with recombinant enzyme
T3 construct: gene CHST14; D4ST1-HIS (amino acid 61–376)
T3 sequence (Q8NCH0 61-376): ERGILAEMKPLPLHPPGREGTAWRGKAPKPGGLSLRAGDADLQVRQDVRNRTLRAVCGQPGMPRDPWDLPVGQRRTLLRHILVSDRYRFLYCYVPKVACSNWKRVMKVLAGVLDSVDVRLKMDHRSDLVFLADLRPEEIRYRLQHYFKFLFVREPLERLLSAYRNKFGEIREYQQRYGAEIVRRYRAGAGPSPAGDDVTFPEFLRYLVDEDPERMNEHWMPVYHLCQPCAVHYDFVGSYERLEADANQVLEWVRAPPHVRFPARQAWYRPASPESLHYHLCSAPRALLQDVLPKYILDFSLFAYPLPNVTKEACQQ

Structure (SMILES): O=c1c2ccccc2[se]n1-c1ccccc1 [ebselen, 2-phenyl-1,2-benzoisoselenazol-3(2H)-one]
- IC50 [1]: 7000 nM
- IC50 [2]: 800 nM
- IC50 [3]: 1500 nM
